Earlier results as cited in PMC7576618 (British Journal of Clinical Pharmacology, 2020).
Where two headings read alike, the source gives them in different places.

Columns and labels:
mGlu2 receptor [1] = details: read-out: in vitro EC50 for mGlu2 receptor; cited from earlier work
mGlu2 receptor [2] = details: read-out: EC50 (assay system used by Eli Lilly); cited from earlier work
[3] = humans; cited from earlier work
[4] = active compound LY2812223; cited from earlier work

N[C@@]1(C(=O)O)CC[C@H]2[C@H](C(=O)O)[C@H]21 [LY354740, (+)‐2‐aminobicyclo[3.1.0]hexane‐2,6‐dicarboxylic acid]
EC50 (mGlu2 receptor [1]): 18.3 nM
EC50 (mGlu2 receptor [2]): 5.1 nM

CSCC[C@H](N)C(=O)N[C@@]1(C(=O)O)CS(=O)(=O)[C@H]2[C@H](C(=O)O)[C@H]21 [LY2140023]
plasma exposure of the prodrug relative to that of LY404039 [3]: approximately 30%

C[C@H](N)C(=O)N[C@@]1(C(=O)O)C[C@@H](Sc2nnc[nH]2)[C@H]2[C@H](C(=O)O)[C@H]21 [LY2979165]
plasma levels of prodrug relative to its active compound [4]: < 1%
